Data on eight compounds can be found in patent publication US5116863A, “Dibenz[b,e]oxepin derivative and pharmaceutical compositions thereof” (Kyowa Hakko Kogyo Co., Ltd., priority 1986, dated 1992).

The test system of data set [1] is homologous PCA (passive cutaneous anaphlaxis) of rats. Description: Homologous PCA (passive cutaneous anaphylaxis) test of rats for 48 hours, oral (antiallergic activity). In kind it is in vivo, Wistar male rats. To be noted: Rattus norvegicus; for minimal effective dose: minimum dosage with positive case in at least one of three rats, read-out: MED (minimum effective dosage), PCA inhibition; for responders at 0.01 mg/kg / responders at 0.1 mg/kg / responders at 1 mg/kg / responders at 10 mg/kg / responders at 100 mg/kg: po, positive = inhibition rate 50% or higher, read-out: Number of positive zooids in one group of 3 zooids (converted); for responders at 0.01 mg/kg: dosage 0.01 mg/kg; for responders at 0.1 mg/kg: dosage 0.1 mg/kg; for responders at 1 mg/kg: dosage 1 mg/kg; for responders at 10 mg/kg: dosage 10 mg/kg; for responders at 100 mg/kg: dosage 100 mg/kg. Here is the method: Antiallergic activity was investigated by a homologous PCA (passive cutaneous anaphlaxis) of rats for 48 hours, where Wistar male rats having body weights of 180 to 220 g were used for sampling of antiserum and Wistar male rats having body weights of 120 to 140 g were used for the PCA test.
Anti-egg white albumin (EWA) rat serum was prepared according to Stotland and Share's method [Canad. J. Physiol. Pharmacol. 52, 1114 (1974)]. That is, 1 mg of EWA was mixed with 20 mg of aluminum hydroxide gel and 0.5 ml of mixed vaccine of pertussis, diphtheria and tetanus, and the mixture was subcutaneously administered in four portions into rat's footpad. After 14 days, blood was sampled from the carotid artery, and the serum was separated from the sampled blood, and preserved under freezing at -80° C. The potency of the antiserumin in the homologous PCA for 48 hours was 1:32.
Groups each consisting of 3 rats were used, and 0.05 ml of anti-EWA rat serum diluted with a physiological saline solution to 8 times as much was incutaneously injected each at two positions of depilated back to make the animals passively sensitised. After 47 hours, the compound of the present invention, or its solution (physiological saline solution or CMC solution) was orally administered. One hour thereafter, 0.5 ml/100 g of 1% Evan's blue physiological saline solution containing 2 mg of the antigen EWA was administered into the tail vein, and 30 minutes thereafter, the animals were sacrificed by exsanguination. Then, the skins were stripped and the amount of leaked pigment at the blue-dyed parts was measured according to the Katayama et al method [Microbiol. Immunol. 22, 89 (1978)]. That is, the blue-dyed parts were cut out by scissors, and placed in test tubes containing 1 ml of 1N KOH and incubated at 37° C. for 24 hours. Then, 9 ml of a mixture of 0.6N phosphoric acid and acetone (5:13) was added thereto, and the mixture was shaked and centrifuged at 2,500 rpm for 10 minutes. Absorbancy of the supernatant at […] was measured, and the amount of leaked pigment was quantitatively determined by the calibration curve prepared in advance. An average of measurements at the two position was made a value for one zooid, and inhibition rate for the individual zooid was calculated by the following formula: [formula]

For a further data set, the system named is dd, male mice. It counts as in vivo. Here is the method: Groups each consisting of 3 dd, male mice having body weights of 20±1 g were used, and the compound of the present invention was administered orally (po: 300 mg/kg) or intraperitoneally (ip: 100 mg/kg).
Setting [2] is: mice, mortality 7 days after administration.

Each structure is given as a SMILES string. Like-named read-outs stand apart in the source and are kept apart here.

Turning to `CN(C)CC/C=C1\c2ccccc2COc2ccc(C(=O)O)cc21` [3'], in data set [1], the minimal effective dose was determined as 0.1 mg/kg, the responders at 0.01 mg/kg was 0%, the responders at 0.1 mg/kg was 33.3% and the responders at 1 mg/kg is 33.3%. Besides, in data set [1], the responders at 10 mg/kg was 66.7% and the responders at 100 mg/kg was 100%.

Take `CN(C)CC/C=C1\c2ccccc2COc2ccc(CC(=O)O)cc21` [20']: in data set [1], the minimal effective dose was 0.1 mg/kg, the responders at 0.01 mg/kg was 0% and the responders at 1 mg/kg was 100%.

As to `CN(C)CC/C=C1/c2ccccc2COc2ccc(C(=O)O)cc21` [Compound 3 (cis), Cis-11-(3-dimethylaminopropylidene)-6,11-dihydrodibenz[b,e]oxepin-2-carboxylic acid], in the data set with dd, male mice (setting [2]), the “Acute toxicity (MLD), ip” value was above 100 mg/kg and the “Acute toxicity (MLD), po” value is above 300 mg/kg. Besides, in data set [1], the minimal effective dose was found to be 0.1 mg/kg, the responders at 0.01 mg/kg was 0%, the responders at 0.1 mg/kg was 100% and the responders at 1 mg/kg is 100%. In data set [1], the responders at 10 mg/kg was 100% and the responders at 100 mg/kg was 100%.

On to `CCN(CC)CC/C=C1/c2ccccc2COc2ccc(C(=O)O)cc21` [Compound 5, 11-(3-Diethylaminopropylidene)-6,11-dihydrodibenz[b,e]oxepin-2-carboxylic acid], for which, in the data set on dd, male mice (mouse, in vivo, 10080 min), the “Acute toxicity (MLD), ip” value is recorded as above 100 mg/kg and the “Acute toxicity (MLD), po” value is listed as above 300 mg/kg. In data set [1], the minimal effective dose worked out at 1 mg/kg, the responders at 0.01 mg/kg is 0%, the responders at 1 mg/kg was 100% and the responders at 10 mg/kg was 100%. Besides, in data set [1], the responders at 100 mg/kg is 100%.

`O=C(O)c1ccc2c(c1)C(=CCCN1CCCC1)c1ccccc1CO2` [Compound 7, 11-(3-Pyrrolidinopropylidene)-6,11-dihydrodibenz[b,e]oxepin-2-carboxylic acid]: in the data set on dd, male mice (setting [2]), the “Acute toxicity (MLD), ip” value is above 100 mg/kg and the “Acute toxicity (MLD), po” value is listed as above 300 mg/kg. Besides, in data set [1], the minimal effective dose worked out at 1 mg/kg, the responders at 0.1 mg/kg was 0%, the responders at 1 mg/kg was 33.3% and the responders at 10 mg/kg is 66.7%. The responders at 100 mg/kg in data set [1] was 100%.

In the case of `CN(C)CCCC=C1c2ccccc2COc2ccc(C(=O)O)cc21` [Compound 9, 11-(4-Dimethylaminobutylidene)-6,11-dihydrodibenz[b,e]oxepin-2-carboxylic acid], in the data set with dd, male mice (setting [2]), the “Acute toxicity (MLD), ip” value is above 100 mg/kg and the “Acute toxicity (MLD), po” value is above 300 mg/kg. Moreover, in data set [1], the minimal effective dose came to 1 mg/kg, the responders at 0.01 mg/kg was 0%, the responders at 0.1 mg/kg is 0% and the responders at 1 mg/kg was 66.7%. In data set [1], the responders at 10 mg/kg was 100% and the responders at 100 mg/kg was 100%.

On to `O=C(O)c1ccc2c(c1)/C(=C\CN1CCSCC1)c1ccccc1CO2` [Compound 15, 11-(2-Thiomorpholinoethylidene)-6,11-dihydrodibenz[b,e]oxepin-2-carboxylic acid], for which, in data set [1], the minimal effective dose turned out to be 100 mg/kg, the responders at 0.1 mg/kg is 0%, the responders at 1 mg/kg was 0% and the responders at 10 mg/kg is 0%. For the same compound, in data set [1], the responders at 100 mg/kg is 100%.

Turning to `CN(C)CC/C=C1/c2ccccc2COc2ccc(CCCO)cc21` [Compound 33, Cis-11-(3-dimethylaminopropylidene)-2-(3-hydroxypropyl)-6,11-dihydrodibenz[b,e]oxepin; Trans-11-(3-dimethylaminopropylidene)-2-(3-hydroxypropyl)-6,11-dihydrodibenz[b,e]oxepin], in data set [1], the minimal effective dose was found to be 1 mg/kg, the responders at 0.1 mg/kg is 0%, the responders at 1 mg/kg is 33.3% and the responders at 10 mg/kg is 100%. For the same compound, in data set [1], the responders at 100 mg/kg is 100%.
